“And” between values parts separate entries of the source, which are not always exact repeats. Identical values can stand only once.
Experiments:
CAL-148 [1] = assay: normalised viability (% of control), CellTiter-Blue; higher = more viable cells (about 100 = DMSO control); conditions: incubation time: 72 h
Description: (§1)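 DSRT, CellTiter-Blue viability, 72 h incubation. Signal is normalised to DMSO and benzethonium chloride controls. Value is the normalised response at dose 7.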

CAL-51 [2] = assay: as above; conditions: incubation time: 72 h
Description: as §1

CAL-85-1 [3] = assay: as above; conditions: incubation time: 72 h
Description: as §1

DU-4475 [4] = assay: as above; conditions: incubation time: 72 h
Description: as §1

HDQ-P1 [5] = assay: as above; conditions: incubation time: 72 h
Description: as §1

MDA-MB-453 [6] = assay: as above; conditions: incubation time: 72 h
Description: as §1

CAL-85-1 [7] = conditions: 72 h
Description: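 Drug sensitivity and resistance testing (DSRT) of breast cancer cell lines in 384-well plates, 5 concentrations in 10-fold dilutions over a compound-specific 10,000-fold range. After 72 h, cytotoxicity was read by CellTox Green fluorescence and viability by CellTiter-Glo luminescence (multiplexed), normalised to DMSO and benzethonium chloride controls. EC50 is the inflection point of the fitted dose-response curve (bottom asymptote free, so it can be relative for partial curves) and is censored at the highest tested concentration. Rows with DSS 0 (no meaningful response) were excluded.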

CAL-148 [8] = assay: normalised response (% of control), CellTiter-Glo; higher = more viable cells (100 = DMSO, 0 = benzethonium chloride kill control); conditions: incubation time: 72 h
Summary of the method: (§2)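 In 384-well plates holding compound at 5 concentrations in 10-fold steps over a 10,000-fold range specific to each compound, breast cancer cell lines were seeded as 20 µl suspension and incubated 72 h. CellTox Green fluorescence was measured at 485/520 nm, after which CellTiter-Glo luminescence was measured following 10 min at room temperature. Plate signals were normalised to 0.1 % DMSO (100) and a positive kill control (0), and each value is the normalised signal at a single concentration.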

CAL-51 [9] = assay: as above; conditions: incubation time: 72 h
Summary of the method: as §2

DU-4475 [10] = assay: as above; conditions: incubation time: 72 h
Summary of the method: as §2

HCC1599 = assay: as above; conditions: incubation time: 72 h
Summary of the method: as §2

HDQ-P1 [11] = assay: as above; conditions: incubation time: 72 h
Summary of the method: as §2

MCF-10A = assay: as above; conditions: incubation time: 72 h
Summary of the method: as §2

MDA-MB-231 = assay: as above; conditions: incubation time: 72 h
Summary of the method: as §2

MDA-MB-436 [12] = assay: as above; conditions: incubation time: 72 h
Summary of the method: as §2

MDA-MB-453 [13] = assay: as above; conditions: incubation time: 72 h
Summary of the method: as §2

MDA-MB-468 = assay: as above; conditions: incubation time: 72 h
Summary of the method: as §2

MFM-223 [14] = assay: as above; conditions: incubation time: 72 h
Summary of the method: as §2

CAL-51 [15] = conditions: 72 h
Summary of the method: (§3)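 After 72 h on 384-well plates pre-loaded with compound in 5 µl medium, breast cancer cell lines seeded in 20 µl were assayed for viability with 2.5 µl CellTiter-Blue at 37 °C for 2 h, read at 560/590 nm. Each plate was quality-checked by Z'-factor and normalised to vehicle and a positive kill control. EC50 comes from the fitted percent-inhibition dose-response curve, censored at the top concentration, and rows scoring zero for drug sensitivity were left out.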

CAL-85-1 [16] = conditions: 72 h; remark: listed apart in the source
Summary of the method: as §3

HDQ-P1 [17] = conditions: 72 h
Summary of the method: as §3

BT-549 = conditions: 72 h
Summary of the method: as §3

CAL-120 = conditions: 72 h
Summary of the method: as §3

HCC1143 = conditions: 72 h
Summary of the method: as §3

MDA-MB-436 [18] = conditions: 72 h
Summary of the method: as §3

MFM-223 [19] = conditions: 72 h
Summary of the method: as §3

MDA-MB-453 [20] = conditions: 72 h
Summary of the method: as §3

SMILES	normalised viability (CAL-148 [1])	normalised viability (CAL-51 [2])	normalised viability (CAL-85-1 [3])	normalised viability (DU-4475 [4])	normalised viability (HDQ-P1 [5])	normalised viability (MDA-MB-453 [6])	further results
COc1ccc(-c2cc3c(C)nc(N)nc3n([C@H]3CC[C@H](OCCO)CC3)c2=O)cn1 (1000 nM)	18.1%	12.9%	23.1%	42.9%	12.2%	7.65%	
CC/C(=C(\c1ccc(O)cc1)c1ccc(OCCN(C)C)cc1)c1ccccc1 [4-hydroxytamoxifen]							EC50, CellTox Green (CAL-85-1 [7]): 7760 nM
O=C(Nc1c[nH]nc1-c1nc2ccc(CN3CCOCC3)cc2[nH]1)NC1CC1 [AT9283] (1000 nM)	67.3%	51.3%	55.4%	10.3%	50.3%	42%	normalised response (CAL-148 [8]): 86.1%; normalised response (CAL-51 [9]): 83%; normalised response (DU-4475 [10]): 72.4%; normalised response (HCC1599): 74.4%; normalised response (HDQ-P1 [11]): 50.8%; normalised response (MCF-10A): 46.2%; normalised response (MDA-MB-231): 42.4%; normalised response (MDA-MB-436 [12]): 99.5%; normalised response (MDA-MB-453 [13]): 185%; normalised response (MDA-MB-468): 31.1%; normalised response (MFM-223 [14]): 75.5%
COc1cc(CCc2cc(NC(=O)c3ccc(N4CC(C)NC(C)C4)cc3)n[nH]2)cc(OC)c1 (stereo not drawn) [AZD4547] (100 nM)	106%	101%	74.9%	84.3%	106%	78.1%	
CC(=O)OC[C@H]1O[C@@H]([S-])[C@H](OC(C)=O)[C@@H](OC(C)=O)[C@@H]1OC(C)=O.CCP(CC)CC.[Au+] [Auranofin]							EC50, CellTox Green (CAL-85-1 [7]): 917 nM
CCC/C=C/C=C/C(=O)O[C@H]1/C(=C/C(=O)OC)C[C@H]2C[C@H]([C@@H](C)O)OC(=O)C[C@H](O)C[C@@H]3C[C@H](OC(C)=O)C(C)(C)[C@](O)(C[C@@H]4C/C(=C/C(=O)OC)C[C@H](/C=C/C(C)(C)[C@]1(O)O2)O4)O3 [Bryostatin 1] (10 nM)	98.1%	109%	98.7%	76.5%	118%	92.2%	
CO[C@@H](C(=O)N1Cc2[nH]nc(NC(=O)c3ccc(N4CCN(C)CC4)cc3)c2C1)c1ccccc1 [Danusertib] (1000 nM)	47.2%	44.9%	50.8%	46.3%	45.6%	41.7%	
Cc1nc(Nc2ncc(C(=O)Nc3c(C)cccc3Cl)s2)cc(N2CCN(CCO)CC2)n1 [Dasatinib]							EC50, CellTiter-Blue viability (CAL-51 [15]): 22.2 nM; EC50, CellTiter-Blue viability (CAL-85-1 [16]): 83.9 nM; EC50, CellTiter-Blue viability (HDQ-P1 [17]): 12.4 nM; EC50, CellTiter-Blue viability (BT-549): 58.5 nM; EC50, CellTiter-Blue viability (CAL-120): 56.3 nM; EC50, CellTiter-Blue viability (HCC1143): 34.5 nM; EC50, CellTiter-Blue viability (MDA-MB-436 [18]): 78.5 nM; EC50, CellTiter-Blue viability (MFM-223 [19]): 427 nM; EC50, CellTox Green (CAL-85-1 [7]): 108 nM
Cc1nc(Nc2ncc(C(=O)Nc3c(C)cccc3Cl)s2)cc(N2CCN(CCO)CC2)n1 [Dasatinib] (100 nM)	109% and 93.3%	47.8% and 48.7%	56.4% and 53%	95.1% and 108%	15.8% and 11.4%	88.2% and 94.5%	
O=S(=O)(c1cccc2cnccc12)N1CCCNCC1 [Fasudil]							EC50, CellTiter-Blue viability (MDA-MB-453 [20]): > 10000 nM; EC50, CellTiter-Blue viability (MFM-223 [19]): 1690 nM
Cc1c(CN2CCN(C(=O)[C@H](C)O)CC2)sc2c(N3CCOCC3)nc(-c3cnc(N)nc3)nc12 [GDC-0980] (1000 nM)	15.3%	16.5%	27.1%	50.2%	24.7%	8.12%	
Nc1cccc2c1CN(C1CCC(=O)NC1=O)C2=O (stereo not drawn) [Lenalidomide] (1000 nM)	95.3% and 104%	103% and 100%	80% and 74.3%	110% and 88.9%	110% and 96.9%	85.6% and 104%	
C[C@]12O[C@H](C[C@]1(O)CO)n1c3ccccc3c3c4c(c5c6ccccc6n2c5c31)CNC4=O [Lestaurtinib] (100 nM)	104%	110%	99.5%	79.6%	87.8%	75.1%	

Source: the supplement of paper PMC4862054
